# Results: patent US5336673A, “3-substituted cephem compounds” (priority 1990, dated 1994)
# Experiments:
# [1] = tested on: Salmonella typhimurium; experiment: Antibacterial activity, MIC by Agar dilution method, standard test strain 16; assay type: cell-based; settings: Salmonella enterica, 10^7 CFU/ml, 37° C., 18 hours
# Description: (§1) The antibacterial activity was determined by an Agar dilution method as described below.
# (§2) That is, the two-fold serial dilutions of the antibacterial compounds (1000 μg compound/ml) were prepared and dispersed in Muller Hinton Agar in a petri dish to a concentration of 100~0.002 μg/ml. The culture broths of standard test strains were inoculated on the medium to a concentration 10^7 CFU/ml, and incubated at 37° C. for 18 hours. The concentration of compounds(I) at which the strains were not grown was regarded as minimum inhibition concentration (MIC).
# (§3) The results of antibacterial activity test of the representative examples of the compound (I) against 20 standard test strains shown in terms of MIC were indicated in Table 1.
# 16. Salmonella typhimurium
# [2] = tested on: Streptococcus faecium MD 86; experiment: Antibacterial activity, MIC by Agar dilution method, standard test strain 3; assay type: cell-based; settings: Enterococcus faecium, MD86, 10^7 CFU/ml, 37° C., 18 hours
# Description: as §1, §2, §3
# 3. Streptococcus faecium MD 86
# [3] = tested on: Escherichia coli TEM; experiment: Antibacterial activity, MIC by Agar dilution method, standard test strain 10; assay type: cell-based; settings: Escherichia coli TEM; 10^7 CFU/ml, 37° C., 18 hours; read-out: MIC
# Description: as §1, §2, §3
# [4] = tested on: Streptococcus pyogenes A 308; experiment: Antibacterial activity, MIC by Agar dilution method, standard test strain 1; assay type: cell-based; settings: A308, 10^7 CFU/ml, 37° C., 18 hours
# Description: as §1, §2, §3
# 1. Streptococcus pyogenes A 308
# [5] = tested on: Pseudomonas aeruginosa 1771M; experiment: Antibacterial activity, MIC by Agar dilution method, standard test strain 15; assay type: cell-based; settings: 18 h
# Description: as §1, §2, §3
# 15. Pseudomonas aeruginosa 1771M
# [6] = tested on: Pseudomonas aeruginosa 1771; experiment: Antibacterial activity, MIC by Agar dilution method, standard test strain 14; assay type: cell-based; settings: 10^7 CFU/ml, 37° C., 18 hours
# Description: as §1, §2, §3
# 14. Pseudomonas aeruginosa 1771
# [7] = tested on: Escherichia coli DC O; experiment: Antibacterial activity, MIC by Agar dilution method, standard test strain 8; assay type: cell-based; settings: Escherichia coli, 18 h
# Description: as §1, §2, §3
# [8] = tested on: β-lactamase producing strains such as Pseudomonas aeruginosa and Enterobacter cloacae; experiment: Antibacterial activity against β-lactamase producing strains (summary in words); assay type: cell-based
# Description: as §1, §2
# [9] = tested on: Streptococcus pyogenes 77A; experiment: Treatment effect on systemic infection model; assay type: in vivo; settings: im, read-out: PD50
# Description: The antibacterial activity test on systemic infection model was carried out using the compound of Example 18 as follows: 0.3 ml of diluted solution containing lethal dose of strain was administered intraperitoneally to the test animal, and then 5 to 0.078 mg/kg of compound was administered intramuscularly.
# [10] = biological target: T1, β-lactamase from Citrobacter freundii (Citrobacter freundii, UniProt P05193); experiment: Stability against β-lactamase, relative hydrolysis; assay type: biochemical; settings: Citrobacter freundii enzyme; 100 μM; relative(percentage), Cephaloridine taken as 100; OD at 260 nm
# T1 construct: directly isolated from Enterobacter cloacae P99, E. coli TEM and Citrobacter freundii; endogenous in cells
# T1 sequence (P05193 21-381): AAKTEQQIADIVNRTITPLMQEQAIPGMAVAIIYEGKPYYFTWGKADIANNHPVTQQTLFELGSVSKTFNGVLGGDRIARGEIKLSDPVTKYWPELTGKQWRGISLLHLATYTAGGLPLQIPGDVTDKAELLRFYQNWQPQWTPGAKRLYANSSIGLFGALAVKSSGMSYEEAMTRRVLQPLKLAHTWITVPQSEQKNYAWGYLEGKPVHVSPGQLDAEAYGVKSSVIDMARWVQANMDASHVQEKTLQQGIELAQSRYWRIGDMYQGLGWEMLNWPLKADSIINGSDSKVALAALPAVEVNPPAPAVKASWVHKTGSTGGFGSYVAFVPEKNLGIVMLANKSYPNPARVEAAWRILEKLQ
# Description: (§4) In order to establish the usefulness in clinical applications of the compounds provided by the invention, the compound of Example 18 was tested for stability against the β-lactamase and for antibacterial activity on systemic infection model.
# (§5) First, the stability against the β-lactamase was tested by determining the relative(percentage) hydrolysis of the compound of Example 18, relative to that of Cephaloridine, taking the absolute rate of Cephaloridine as 100.
# (§6) The β-lactamases employed in the test were directly isolated from Enterobacter cloacae P99, E. coli TEM and Citrobacter freundii, and the antibiotics for comparison were Cephaloridine, Cephradine, Cefoperazone and Cefotaxime.
# (§7) Cephaloridine, other known antibiotics and the compound of Example 18 were reacted with each of the enzymes isolated from the strains and the OD were determined at 260 nm, λmax of Cephaloridine. The relative hydrolysis of various compounds were calculated relative to the OD of Cephaloridine.
# [11] = biological target: T2, β-lactamase from E. coli TEM (Escherichia coli, UniProt P62593); experiment: Stability against β-lactamase, relative hydrolysis; assay type: biochemical; settings: E. coli TEM enzyme; 100 μM; relative(percentage), Cephaloridine taken as 100; OD at 260 nm
# T2 construct: directly isolated from Enterobacter cloacae P99, E. coli TEM and Citrobacter freundii; endogenous in cells; host or cells: E. coli TEM (plasmid-carried enzyme of the strain)
# T2 sequence (P62593 24-286 limits assumed): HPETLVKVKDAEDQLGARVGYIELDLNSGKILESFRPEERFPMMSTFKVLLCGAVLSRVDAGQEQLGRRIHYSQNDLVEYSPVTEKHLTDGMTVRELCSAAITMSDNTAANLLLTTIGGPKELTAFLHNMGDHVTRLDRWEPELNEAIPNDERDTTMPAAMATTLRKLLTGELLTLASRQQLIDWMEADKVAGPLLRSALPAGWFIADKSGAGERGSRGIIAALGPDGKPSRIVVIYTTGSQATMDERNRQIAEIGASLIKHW
# Description: as §4, §5, §6, §7
# [12] = Acute toxcity test; settings: in vivo, male ICR-mouse, after 1 week
# Description: Further, in order to illustrate the usefulness of the compounds (I) as a drug, compounds of Examples 12, 18 and 36 were tested for acute toxcity by using 4 weeks-old male ICR-mouse as a test animal.
# the compounds were dissolved in physiological saline and phosphate buffered solution (pH 7.0), or if they were […], suspended in carboxymethylcellulose or gum Arabic and then mixed with phosphate buffered solution.
# The solution or mixture was administered to the tested animals intravenously or subcutaneously and, after 1 week, the number of surviving animals was calculated.
structure (smiles),measurement,setting,value
"CON=C(C(=O)NC1C(=O)N2C(C(=O)[O-])=C(C[n+]3nn(N)c4ccccc43)CSC12)c1csc(N)n1 [Example 18, (6R,7R)-7-[(Z)-2-(2-aminothiazol-4-yl)-2-methoxyiminoacetamido]-3-[(1-aminobenzotriazol-3-ium)methyl]-ceph-3-em-4-carboxylate]",MIC,[1],0.195 µg/mL
same,MIC,[2],> 100 µg/mL
same,MIC,[3],0.013 µg/mL
same,MIC,[4],0.004 µg/mL
same,MIC,[5],0.781 µg/mL
same,MIC,[6],1.56 µg/mL
same,MIC,[7],0.025 µg/mL
same,antibacterial activity (in words),[8],superior activity
same,ED50,[9],0.27 mg/kg
same,Relative hydrolysis by β-lactamase,[10],0.2
same,Relative hydrolysis by β-lactamase,[11],0.0
same,LD50 at 168 h,"[12]; sc, Subcutaneous administration",> 6000 mg/kg
same,LD50 at 168 h,[12]; Intravenous administration,> 4000 mg/kg
